Reference: patent publication US20130004580A1, “DIVALENT CATION/TALC CONTAINING COMPOSITIONS AND METHODS FOR TREATING AND/OR PREVENTING ENZYMATIC IRRITATION” (priority 2011, published 2013)

Assays:
Assay type in all cases: biochemical
trypsin [1] = assay: Trypsin inhibition, EnzChek protease assay, mixtures of talc with divalent cation salts
Procedure: The objective of the following experiment was to determine whether and to what extent adding a divalent cation to talc inhibited trypsin activity in an in vitro assay. The inhibition of trypsin-induced cleavage of a fluorescent casein peptide was measured using the EnzChek™ protease assay kit, following manufacturer's instructions (EnzChek™ Protease Assay Kits Product Information, Revised; Molecular Probes, Eugene Oreg.). […] Trypsin working solution (Sigma, St. Louis, Mo., unit/mL) was prepared in digestion buffer provided in the assay kit. Stock solution of BODIPY FL casein (trypsin substrate, mg/mL) was prepared by adding 0.2 mL to the substrate vials (provided in kit), and the final substrate working solution (10 microgram/mL) was prepared by dilution in digestion buffer (pH 7.8). Following incubation of the trypsin, with or without the test materials, with the BODIPY fluorescent casein substrate, at room temperature for one hour, fluorescence was measured (excitation 485 nm/emission 530 nm) using a SpectraMax microtiter plate reader (Molecular Devices Corporation, Sunnyvale, Calif.) and Softmax Pro software (Molecular Devices Corporation). Each experiment was performed in three replicates.

trypsin [2] = assay: Trypsin inhibition, EnzChek protease assay, zinc oxide/acid mixtures and formulations; details: text b134 on Table 5
Procedure: The objective of the following experiment was to determine whether and to what extent adding an acid to a formulation containing zinc oxide had on inhibition of trypsin activity in an in vitro assay. The inhibition of trypsin-induced cleavage of a fluorescent casein peptide was measured using the EnzChek™ protease assay kit, following manufacturer's instructions (EnzChek™ Protease Assay Kits Product Information, Revised; Molecular Probes, Eugene Oreg.). Briefly, mixtures of zinc oxide and acid at different concentrations were prepared in 1×PBS (pH 7.4) and their pH was recorded as listed in the Tables 5-8. Trypsin working solution (Sigma, St. Louis, Mo., unit/mL) was prepared in digestion buffer provided in the assay kit. Stock solution of BODIPY FL casein (trypsin substrate, mg/mL) was prepared by adding 0.2 mL to the substrate vials (provided in kit), and the final substrate working solution (10 microgram/mL) was prepared by dilution in digestion buffer (pH 7.8). Following incubation of the trypsin, with or without the test materials (50 μl), with the BODIPY fluorescent casein substrate, at room temperature for one hour, fluorescence was measured (excitation 485 nm/emission 530 nm) using a SpectraMax microtiter plate reader (Molecular Devices Corporation, Sunnyvale, Calif.) and Softmax Pro software (Molecular Devices Corporation). Each experiment was performed in three replicates. […]

trypsin [3] = assay: Trypsin inhibition, EnzChek protease assay (BODIPY FL casein cleavage), cation salts; details: Table 1
Procedure: The inhibition of trypsin-induced cleavage of a fluorescent casein peptide was measured using the EnzChek™ protease assay kit, following manufacturer's instructions (EnzChek™ Protease Assay Kits Product Information, Revised; Molecular Probes, Eugene Oreg.). Briefly, test materials at different concentrations were prepared in 1× phosphate buffered saline (PBS, pH 7.4). Trypsin working solution (Sigma, St. Louis, Mo., unit/mL) was prepared in digestion buffer provided in the assay kit. Stock solution of BODIPY FL casein (trypsin substrate, mg/mL) was prepared by adding 0.2 mL to the substrate vials (provided in kit), and the final substrate working solution (10 microgram/mL) was prepared by dilution in digestion buffer (pH 7.8). […] Each experiment was performed in three replicates.

CC(=O)[O-].CC(=O)[O-].O.[Ca+2] [Calcium acetate monohydrate]
Salt alone, trypsin inhibition activities (%) (trypsin [1]; Table 3, 0.1% (g/mL)): 15.31%

[Ca+2].[Cl-].[Cl-] [Calcium chloride]
Salt alone, trypsin inhibition activities (%) (trypsin [1]; Table 3, 0.1% (g/mL)): 17.95%

O.O.O.O.[Cl][Fe][Cl] [Iron (II) chloride tetrahydrate]
Salt alone, trypsin inhibition activities (%) (trypsin [1]; Table 3, 0.1% (g/mL)): 65.07%

CC(=O)[O-].CC(=O)[O-].O.O.O.O.[Mg+2] [Magnesium acetate tetrahydrate]
Salt alone, trypsin inhibition activities (%) (trypsin [1]; Table 3, 0.1% (g/mL)): 0.83%

[Cl-].[Cl-].[Mg+2] [Magnesium chloride]
Salt alone, trypsin inhibition activities (%) (trypsin [1]; Table 3, 0.1% (g/mL)): 4.75%
Salt alone, trypsin inhibition activities (%) (trypsin [1]; Table 4, 0.1% MgCl2 (g/mL)): 9.02%
With 1% Talc, trypsin inhibition activities (%) (trypsin [1]; Table 4, 0.1% MgCl2 with 1% talc (g/mL)): 25.43%
Salt alone, trypsin inhibition activities (%) (trypsin [1]; Table 4, 0.5% MgCl2 (g/mL)): 19.51%
With 1% Talc, trypsin inhibition activities (%) (trypsin [1]; Table 4, 0.5% MgCl2 with 1% talc (g/mL)): 32.84%
Salt alone, trypsin inhibition activities (%) (trypsin [1]; Table 4, 1% MgCl2 (g/mL)): 22.13%
With 1% Talc, trypsin inhibition activities (%) (trypsin [1]; Table 4, 1% MgCl2 with 1% talc (g/mL)): 40.42%
trypsin inhibitory activity, in words (trypsin [1]; text b102 on Table 4): moderate to low levels of trypsin inhibitory activity

CC(=O)[O-].CC(=O)[O-].[Zn+2] [Zinc acetate dihydrate]
Salt alone, trypsin inhibition activities (%) (trypsin [1]; Table 3, 0.1% (g/mL)): 62.84%

[Cl-].[Cl-].[Zn+2] [Zinc chloride]
Salt alone, trypsin inhibition activities (%) (trypsin [1]; Table 3, 0.1% (g/mL)): 81.07%

[O]=[Zn] [ZnO, zinc oxide]
trypsin inhibitory activity, in words (trypsin [2]): minimal protease activity

copper (II) chloride [(II) chloride dihydrate]
% trypsin inhibitory activity (trypsin [3]; concentration 0.01% (g/mL)): 64.98%
% trypsin inhibitory activity (trypsin [3]; concentration 0.10% (g/mL)): 99.34%
% trypsin inhibitory activity (trypsin [3]; concentration 1% (g/mL)): 108.34%
